Results reported in patent publication US8163929B2, “Dihydropyridone amides as P2X7 modulators” (Roche Palo Alto LLC, priority 2008, dated 2012).

Molecular target: T1, P2X7 (UniProt Q99572)
T1 sequence (Q99572 1-595): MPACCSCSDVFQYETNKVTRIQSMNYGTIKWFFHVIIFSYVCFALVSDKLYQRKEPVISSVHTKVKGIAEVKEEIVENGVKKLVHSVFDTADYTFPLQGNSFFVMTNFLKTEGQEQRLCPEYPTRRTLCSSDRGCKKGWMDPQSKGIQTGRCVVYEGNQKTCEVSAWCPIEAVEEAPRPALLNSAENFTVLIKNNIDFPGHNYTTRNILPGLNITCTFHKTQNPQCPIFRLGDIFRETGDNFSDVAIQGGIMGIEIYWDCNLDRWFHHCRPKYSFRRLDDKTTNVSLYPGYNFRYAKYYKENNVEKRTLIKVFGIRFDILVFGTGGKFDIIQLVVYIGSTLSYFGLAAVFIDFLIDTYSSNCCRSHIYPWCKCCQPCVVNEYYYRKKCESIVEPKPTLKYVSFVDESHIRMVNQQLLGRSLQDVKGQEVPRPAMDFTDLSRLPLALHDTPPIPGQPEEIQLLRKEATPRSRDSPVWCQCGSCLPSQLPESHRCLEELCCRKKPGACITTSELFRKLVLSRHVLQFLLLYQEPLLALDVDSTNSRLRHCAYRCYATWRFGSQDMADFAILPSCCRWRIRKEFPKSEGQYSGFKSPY
Assay: P2X7 activity of Table 1
Type: cell-based
Conditions: pIC50 values for P2X7
Outline: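 FLIPR calcium flux with fluo-3 in 1321N1 cells expressing human P2X7 and HEK293 cells expressing rat P2X7, in HBSS with 2 mM CaCl2 and 2.5 mM probenecid. Antagonist pre-incubated 20 min at room temperature, then BzATP added (100 μM human, 5 μM rat). Peak response over 5 min normalised to 5 μM ionomycin.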

| SMILES | pIC50 |
| --- | --- |
| Cc1ccc(-n2ncccc2=O)cc1NC(=O)C1=CN(C)C(=O)C[C@H]1c1ccc(F)cc1 [Compound 110, (S)-4-(4-Fluoro-phenyl)-1-methyl-6-oxo-1,4,5,6-tetrahydro-pyridine-3-carboxylic acid [2-methyl-5-(6-oxo-6H-pyridazin-1-yl)-phenyl]-amide] | 7.17 |
| Cc1ccc(-c2cc(C(F)(F)F)n(CCO)n2)cc1NC(=O)C1=CN(C)C(=O)C[C@H]1c1cccc(F)c1 [Compound 111, (S)-4-(3-Fluoro-phenyl)-1-methyl-6-oxo-1,4,5,6-tetrahydro-pyridine-3-carboxylic acid {5-[1-(2-hydroxy-ethyl)-5-trifluoromethyl-1H-pyrazol-3-yl]-2-methyl-phenyl}-amide] | 6.895 |
| Cc1ccc(-c2ccn(CCO)n2)cc1NC(=O)C1=CN(C)C(=O)C[C@H]1c1cccc(F)c1 [Compound 112, (S)-4-(3-Fluoro-phenyl)-1-methyl-6-oxo-1,4,5,6-tetrahydro-pyridine-3-carboxylic acid {5-[1-(2-hydroxy-ethyl)-1H-pyrazol-3-yl]-2-methyl-phenyl}-amide] | 7.645 |
| Cc1cc(-c2ccc(Cl)c(NC(=O)C3=CN(C)C(=O)C[C@H]3c3ccc(F)cc3)c2)nn1CCO [Compound 115, (S)-4-(4-Fluoro-phenyl)-1-methyl-6-oxo-1,4,5,6-tetrahydro-pyridine-3-carboxylic acid {2-chloro-5-[1-(2-hydroxy-ethyl)-5-methyl-1H-pyrazol-3-yl]-phenyl}-amide] | 7.04 |
| Cc1ccc(-c2ccc[nH]c2=O)cc1NC(=O)C1=CN(C)C(=O)C[C@H]1c1ccc(F)cc1 [Compound 116, (S)-4-(4-Fluoro-phenyl)-1-methyl-6-oxo-1,4,5,6-tetrahydro-pyridine-3-carboxylic acid [2-methyl-5-(2-oxo-1,2-dihydro-pyridin-3-yl)-phenyl]-amide] | 7.565 |
| COc1ccc(-c2ccc(C)c(NC(=O)C3=CN(C)C(=O)C[C@H]3c3ccc(F)cc3)c2)nn1 [Compound 117, (S)-4-(4-Fluoro-phenyl)-1-methyl-6-oxo-1,4,5,6-tetrahydro-pyridine-3-carboxylic acid [5-(6-methoxy-pyridazin-3-yl)-2-methyl-phenyl]-amide] | 7.22 |
| Cc1ccc(-c2ccc(=O)[nH]n2)cc1NC(=O)C1=CN(C)C(=O)C[C@H]1c1ccc(F)cc1 [Compound 118, (S)-4-(4-Fluoro-phenyl)-1-methyl-6-oxo-1,4,5,6-tetrahydro-pyridine-3-carboxylic acid [2-methyl-5-(6-oxo-1,6-dihydro-pyridazin-3-yl)-phenyl]-amide] | 6.585 |
| Cc1ccc(-c2cc(C)n(CC(=O)NCCN(C)C)n2)cc1NC(=O)C1=CNC(=O)C[C@H]1c1ccc(F)cc1 [Compound 119, (S)-4-(4-Fluoro-phenyl)-6-oxo-1,4,5,6-tetrahydro-pyridine-3-carboxylic acid (5-{1-[(2-dimethylamino-ethylcarbamoyl)-methyl]-5-methyl-1H-pyrazol-3-yl}-2-methyl-phenyl)-amide] | 7.685 |
| Cc1ccc(-c2cccn(C)c2=O)cc1NC(=O)C1=CN(C)C(=O)C[C@H]1c1ccc(F)cc1 [Compound 120, (S)-4-(4-Fluoro-phenyl)-1-methyl-6-oxo-1,4,5,6-tetrahydro-pyridine-3-carboxylic acid [2-methyl-5-(1-methyl-2-oxo-1,2-dihydro-pyridin-3-yl)-phenyl]-amide] | 7.855 |
| Cc1ccc(-c2ccc(=O)n(CCO)n2)cc1NC(=O)C1=CNC(=O)C[C@H]1c1ccc(F)cc1 [Compound 121, (S)-4-(4-Fluoro-phenyl)-6-oxo-1,4,5,6-tetrahydro-pyridine-3-carboxylic acid {5-[1-(2-hydroxy-ethyl)-6-oxo-1,6-dihydro-pyridazin-3-yl]-2-methyl-phenyl}-amide] | 7.385 |
